Results published in patent publication US9522914B2, “Azole derivative” (TAISHO PHARMACEUTICAL CO., LTD, priority 2011, dated 2016).

Key:
[1] = target: T1, Human V1b receptor (Homo sapiens (Human), UniProt P47901); test: Measurement of V1b Receptor Antagonistic Activity (AVP-induced Fluo-4 fluorescence in CHO cells, FDSS); format: cell-based; conditions: inhibition of the response to AVP 2.5 nmol/L, CHO cells stably expressing human V1b receptor
Protocol: Measurement of V1b Receptor Antagonistic Activity
CHO cells (ATCC) so modified as to express human V1b receptor in a stable manner were cultured in Ham's F-12 medium (containing 10% FBS and 0.5 mg/mL Geneticin). On the day before the test, seeding was conducted at a density of 20,000 cells/well in a 96-well poly-D-lysine coated black plate. On the day of the test, the culture medium was removed, and a loading solution (1×HBSS, 10 mmol/L HEPES, 0.1% bovine serum albumin, 1.25 mmol/L Probenecid, 0.02% Pluronic F-127, 1.5 μmol/L Fluo-4-AM, pH 7.4) was added to each well, followed by incubation in a CO2 incubator for an hour. After the incubation, the loading solution was removed. A test solution (1×HBSS, 10 mmol/L HEPES, 0.1% bovine serum albumin, 1.25 mmol/L Probenecid, pH 7.4) containing any one of test compounds was added to wells, followed by incubation in a CO2 incubator for 30 minutes. The test compound was serially diluted with DMSO so that it would have final concentrations of 0.1 nmol/L to […] at the time of assaying. After the incubation, fluorescence intensity levels were measured and AVP added by means of FDSS (Hamamatsu Photonics K.K.); AVP was added to give a final concentration of 2.5 nmol/L at the time of assaying. […] The fluorescence level in a well to which neither test compound nor AVP was added was defined as 0%, and the fluorescence level in a well to which only AVP was added and no test compound was added was defined as 100%. A dose-response curve was plotted from fluorescence levels after the addition of AVP in the presence of a test compound at various concentrations, and the 50% inhibitory concentration (IC50 value) of the compound was calculated.

[2] = target: T1, Human V1b receptor; test: Binding Test for V1b Receptor ([3H]AVP, crude membrane preparation of 293FT cells); conditions: inhibition of [3H]AVP binding (0.4 to 1 nmol/L), room temperature, 60 minutes
How it was run: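 Crude membranes from 293FT cells transiently expressing human V1b, incubated with [3H]AVP (0.4 to 1 nmol/L) and compound (0.01 nmol/L–1 μmol/L final) in Tris pH 7.4 with MgCl2 and 0.1% BSA, 60 min at room temperature. Bound label collected by filtration. Nonspecific binding defined with unlabeled AVP; IC50 from dose-response curve.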

T1 sequence (P47901 whole entry): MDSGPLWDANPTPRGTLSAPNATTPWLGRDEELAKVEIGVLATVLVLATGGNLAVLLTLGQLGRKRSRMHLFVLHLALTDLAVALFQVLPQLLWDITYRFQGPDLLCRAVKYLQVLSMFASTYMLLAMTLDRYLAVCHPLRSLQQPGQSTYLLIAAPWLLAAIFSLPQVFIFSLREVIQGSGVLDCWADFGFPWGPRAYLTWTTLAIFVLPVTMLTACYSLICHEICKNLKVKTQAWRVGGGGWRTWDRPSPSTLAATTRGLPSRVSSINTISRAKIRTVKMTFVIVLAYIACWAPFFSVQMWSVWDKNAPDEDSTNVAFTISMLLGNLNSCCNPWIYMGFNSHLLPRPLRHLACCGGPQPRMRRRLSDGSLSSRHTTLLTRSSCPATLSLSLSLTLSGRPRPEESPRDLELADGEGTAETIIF

Row | Compound | IC50 [1] | IC50 [2]
1 | CC(C)(C)NC(=O)Cc1nn(-c2ccc(CCN3C4CCC3COC4)cc2)c(=O)n1-c1cccc(Cl)c1 [Example D-14, N-tert-butyl-2-[4-(3-chlorophenyl)-1-{4-[2-(3-oxa-8-azabicyclo[3.2.1]oct-8-yl)ethyl]phenyl}-5-oxo-4,5-dihydro-1H-1,2,4-triazol-3-yl]acetamide] | 12 nM | 4.7 nM
2 | CC(C)NC(=O)Cc1nn(-c2ccc(CC(C)N3C4CCC3COC4)cc2)c(=O)n1-c1cccc(Cl)c1 [Example D-18, 2-[4-(3-chlorophenyl)-1-{4-[2-(3-oxa-8-azabicyclo[3.2.1]oct-8-yl)propyl]phenyl}-5-oxo-4,5-dihydro-1H-1,2,4-triazol-3-yl]-N-(propan-2-yl)acetamide] | 0.65 nM | 1.5 nM
3 | CC(C)NC(=O)Cc1nn(-c2ccc(CCN3CCC(F)(F)CC3)cc2)c(=O)n1-c1cccc(Cl)c1 [Example D-58, 2-[4-(3-chlorophenyl)-1-{4-[2-(4,4-difluoropiperidin-1-yl)ethyl]phenyl}-5-oxo-4,5-dihydro-1H-1,2,4-triazol-3-yl]-N-(propan-2-yl)acetamide] | – | 10 to 100 nM
4 | CC(C)NC(=O)Cc1nn(-c2ccc(CCN3CCC(C(F)(F)F)CC3)cc2)c(=O)n1-c1cccc(Cl)c1 [Example D-59, 2-[4-(3-chlorophenyl)-5-oxo-1-(4-{2-[4-(trifluoromethyl)piperidin-1-yl]ethyl}phenyl)-4,5-dihydro-1H-1,2,4-triazol-3-yl]-N-(propan-2-yl)acetamide] | – | 100 to 1000 nM
5 | CC(C)NC(=O)Cc1nn(-c2ccc(CCN3C(C)COCC3C)cc2)c(=O)n1-c1cccc(Cl)c1 [Example D-60, 2-[4-(3-chlorophenyl)-1-{4-[2-(3,5-dimethylmorpholin-4-yl)ethyl]phenyl}-5-oxo-4,5-dihydro-1H-1,2,4-triazol-3-yl]-N-(propan-2-yl)acetamide] | – | 100 to 1000 nM
6 | CC(C)NC(=O)Cc1nn(-c2ccc(CCN3CC4(COC4)C3)cc2)c(=O)n1-c1cccc(Cl)c1 [Example D-61, 2-[4-(3-chlorophenyl)-1-{4-[2-(2-oxa-6-azaspiro[3.3]hept-6-yl)ethyl]phenyl}-5-oxo-4,5-dihydro-1H-1,2,4-triazol-3-yl]-N-(propan-2-yl)acetamide] | – | 10 to 100 nM

Next, values leading:

Row | IC50 [1] | IC50 [2] | Compound
7 | 3.2 nM | 3.7 nM | CC(C)NC(=O)Cn1cc(-c2ccc(CCN3CCOCC3)cc2)nc1-c1cccc(Cl)c1 [Example A-02, 2-[2-(3-chlorophenyl)-4-{4-[2-(morpholin-4-yl)ethyl]phenyl}-1H-imidazol-1-yl]-N-(propan-2-yl)acetamide]
8 | 10 nM | 2.2 nM | CC(C)NC(=O)Cn1nc(-c2ccc(CCN3CCOCC3)cc2)nc1-c1cccc(Cl)c1 [Example B-02, 2-[5-(3-chlorophenyl)-3-{4-[2-(morpholin-4-yl)ethyl]phenyl}-1H-1,2,4-triazol-1-yl]-N-(propan-2-yl)acetamide]
9 | 32 nM | 4.3 nM | CC(C)NC(=O)Cc1oc(-c2ccc(CCN3CC4(COC4)C3)cc2)nc1-c1cccc(Cl)c1 [Example C-12, 2-[4-(3-chlorophenyl)-2-{4-[2-(2-oxa-6-azaspiro[3.3]hept-6-yl)ethyl]phenyl}-1,3-oxazol-5-yl]-N-(propan-2-yl)acetamide]
10 | 21 nM | 15 nM | CC(C)NC(=O)Cc1nn(-c2ccc(CCN3CCOCC3)cc2)c(=O)n1-c1cccc(Cl)c1 [Example D-01, 2-[4-(3-chlorophenyl)-1-{4-[2-(morpholin-4-yl)ethyl]phenyl}-5-oxo-4,5-dihydro-1H-1,2,4-triazol-3-yl]-N-(propan-2-yl)acetamide]
11 | 13 nM | 3.5 nM | CC(C)(C)NC(=O)Cc1nn(-c2ccc(CCN3CCOCC3)cc2)c(=O)n1-c1cccc(Cl)c1 [Example D-13, N-tert-butyl-2-[4-(3-chlorophenyl)-1-{4-[2-(morpholin-4-yl)ethyl]phenyl}-5-oxo-4,5-dihydro-1H-1,2,4-triazol-3-yl]acetamide]
12 | – | 10 to 100 nM | CC(C)NC(=O)Cc1nn(-c2ccc(CCN3CCC(F)CC3)cc2)c(=O)n1-c1cccc(Cl)c1 [Example D-57, 2-[4-(3-chlorophenyl)-1-{4-[2-(4-fluoropiperidin-1-yl)ethyl]phenyl}-5-oxo-4,5-dihydro-1H-1,2,4-triazol-3-yl]-N-(propan-2-yl)acetamide]
